What all share (assay type): functional
Assay [1] concerns Mycolicibacterium smegmatis. Description: Antitubercular activity against Mycobacterium smegmatis by checkerboard assay in presence of rifampicin.
Assay [2] deals with Mycolicibacterium smegmatis. Description: Antitubercular activity against Mycobacterium smegmatis by checkerboard assay in presence of spectinomycin.
In assay [3] the test system is Mycolicibacterium smegmatis. Description: Antitubercular activity against Mycobacterium smegmatis by checkerboard assay in presence of kanamycin.
Assay [4] concerns Mycolicibacterium smegmatis. Nature of the assay: Ratio of MIC99 for Mycobacterium smegmatis to ratio of MIC99 for Mycobacterium smegmatis in presence of 7-hydroxy chlorpromazine.
For assay [5], the system named is Mycolicibacterium smegmatis. Description: Ratio of MIC99 for Mycobacterium smegmatis to ratio of MIC99 for Mycobacterium smegmatis in presence of kanamycin.
In assay [6] the test system is Mycolicibacterium smegmatis. Description: Antitubercular activity against Mycobacterium smegmatis by checkerboard assay in presence of 25-desacetylrifampicin.
Assay [7] concerns Mycolicibacterium smegmatis. Description: Antitubercular activity against Mycobacterium smegmatis by checkerboard assay.
For assay [8], the system named is Mycolicibacterium smegmatis. Nature of the assay: Antitubercular activity against Mycobacterium smegmatis by checkerboard assay in presence of 7-hydroxy chlorpromazine. The note with it: for MIC99: Mycolicibacterium smegmatis.
Assay [9] has as its system Mycobacterium tuberculosis. Description: Antitubercular activity against drug-sensitive Mycobacterium tuberculosis.
The test system of assay [10] is Mycolicibacterium smegmatis. Description: Antitubercular activity against Mycobacterium smegmatis by checkerboard assay in presence of chlorpromazine. The note with it: for MIC99: Mycolicibacterium smegmatis.
Assay [11] has as its system Mycolicibacterium smegmatis. Nature of the assay: Ratio of MIC99 for Mycobacterium smegmatis to ratio of MIC99 for Mycobacterium smegmatis in presence of chlorpromazine.
Assay [12] has as its system Mycolicibacterium smegmatis. Nature of the assay: Ratio of MIC99 for Mycobacterium smegmatis to ratio of MIC99 for Mycobacterium smegmatis in presence of 25-desacetylrifampicin.
Assay [13] deals with Mycolicibacterium smegmatis. Nature of the assay: Ratio of MIC99 for Mycobacterium smegmatis to ratio of MIC99 for Mycobacterium smegmatis in presence of nor-chlorpromazine.
Assay [14] relates to Mycolicibacterium smegmatis. Nature of the assay: Ratio of MIC99 for Mycobacterium smegmatis to ratio of MIC99 for Mycobacterium smegmatis in presence of chlorpromazine-N-oxide.
Assay [15] has as its system Mycolicibacterium smegmatis. Nature of the assay: Antitubercular activity against Mycobacterium smegmatis by checkerboard assay in presence of chlorpromazine-N-oxide. The note with it: for MIC99: Mycolicibacterium smegmatis.
Assay [16] concerns Mycolicibacterium smegmatis. Description: Antitubercular activity against Mycobacterium smegmatis by checkerboard assay in presence of nor-chlorpromazine. To be noted: for MIC99: Mycolicibacterium smegmatis.
Assay [17] concerns Mycolicibacterium smegmatis. Description: Antitubercular activity against Mycobacterium smegmatis assessed as reduction in MIC99 by checkerboard assay in presence of chlorpromazine sulfoxide relative to control.
The subject of assay [18] is Mycolicibacterium smegmatis. Nature of the assay: Antitubercular activity against Mycobacterium smegmatis assessed as reduction in MIC99 by checkerboard assay in presence of chlorpromazine-N-S-dioxide relative to control.
In assay [19] the test system is Mycolicibacterium smegmatis. Description: Antitubercular activity against Mycobacterium smegmatis assessed as reduction in MIC99 by checkerboard assay in presence of nor-chlorpromazine sulfoxide relative to control.
The test system of assay [20] is Mycolicibacterium smegmatis. Nature of the assay: Antitubercular activity against Mycobacterium smegmatis by checkerboard assay in presence of chlorpromazine sulfoxide.
For assay [21], the system named is Mycolicibacterium smegmatis. Nature of the assay: Antitubercular activity against Mycobacterium smegmatis by checkerboard assay in presence of nor-chlorpromazine sulfoxide.
The subject of assay [22] is Mycolicibacterium smegmatis. Description: Antitubercular activity against Mycobacterium smegmatis by checkerboard assay in presence of chlorpromazine-N-S-dioxide.

Converted amounts (≈) assume the structure as drawn.

As for `CN(C)CCCN1c2ccccc2Sc2ccc(Cl)cc21` [CHLORPROMAZINE], the MIC99 – broadly, the lowest concentration that inhibits either 99% of growth or 99% of the strains tested, depending on the study – in [1] was 58.6 µM; in [2] it was 29.3 µM; in [3] it was 58.6 µM; in assay [6], 29.3 µM; in [7], 117 µM; in assay [8], 29.3 µM. The Ratio in assay [4] amounted to 0.25; in assay [5], 0.5.
In the case of `CN[C@@H]1[C@H](O)[C@H](NC)[C@H]2O[C@]3(O)[C@H](O[C@@H]2[C@H]1O)O[C@H](C)C[C@H]3NC(=O)Cc1cc(Cl)ccn1`, the MIC (in general, the lowest concentration that inhibits growth of the organism) in [9] came to 0.8 µg/mL (≈ 1.64 µM).
The same measure, in the same setting: as for `CN[C@@H]1[C@H](O)[C@H](NC)[C@H]2O[C@]3(O)[C@H](O[C@@H]2[C@H]1O)O[C@H](C)C[C@H]3NC(=O)CNC(C)(C)C`, the figure is 0.8 µg/mL (≈ 1.79 µM); as for `CN[C@@H]1[C@H](O)[C@H](NC)[C@H]2O[C@]3(O)[C@H](O[C@@H]2[C@H]1O)O[C@H](C)C[C@H]3NC(=O)Cc1ccc(F)cn1`, 0.8 µg/mL (≈ 1.7 µM); as for `CN[C@@H]1[C@H](O)[C@H](NC)[C@H]2O[C@]3(O)[C@H](O[C@@H]2[C@H]1O)O[C@H](C)C[C@H]3NC(=O)Cc1ccccc1`, 0.8 µg/mL (≈ 1.77 µM).
On to `CN(C)CCCN1c2ccc(O)cc2Sc2ccc(Cl)cc21` [7-HYDROXYCHLORPROMAZINE], for which the MIC99 in assay [10] came out at 62.2 µM; in [1] it was 31.1 µM; in assay [2] it was 15.6 µM; in assay [3], 31.1 µM; in [6], 62.2 µM; in assay [7] it was 62.2 µM. Moreover, the Ratio in assay [11] and in assay [12] was 0.5 throughout.
With `CNCCCN1c2ccccc2[S+]([O-])c2ccc(Cl)cc21` (configuration not stated), the MIC99 was 64.9 µM in assay [2] and more than 2080 µM in [7].
The compound `CN[C@@H]1[C@H](O)[C@H](NC)[C@H]2O[C@]3(O)[C@H](O[C@@H]2[C@H]1O)O[C@H](C)C[C@H]3NC(=O)Cc1ccc(Cl)cn1` gave an MIC in assay [9] of 0.8 µg/mL (≈ 1.64 µM).
For `CO[C@H]1/C=C/O[C@@]2(C)Oc3c(C)c(O)c4c(O)c(c(/C=N/N5CCN(C)CC5)c(O)c4c3C2=O)NC(=O)/C(C)=C\C=C\[C@H](C)[C@H](O)[C@@H](C)[C@@H](O)[C@@H](C)[C@H](O)[C@@H]1C` [DESACETYLRIFAMPIN], the “fractional inhibitory concentration index (FICI)” value in assay [10] amounted to 0.5; in assay [8] it was 0.75; in [15] it was 0.75; in [16], 0.5. Besides, the MIC99 in [10] was found to be 1.33 µM; in [7] it was 5.33 µM; in assay [8], 0.33 µM; in assay [15], 0.67 µM; in [16] it was 0.67 µM. The Ratio in assay [4] is recorded as 0.248; in [13], 0.252; in [14], 0.252; in assay [11], 0.25.
As for `C[N+](C)([O-])CCCN1c2ccccc2Sc2ccc(Cl)cc21`, the MIC99 is 498 µM in [1]; 124 µM in assay [2]; 498 µM in assay [3]; 498 µM in assay [6]; 995 µM in [7]. For the same compound, the Ratio in [5] and in assay [12] was 0.5 throughout.
Consider `CN[C@@H]1[C@H](O)[C@H](NC)[C@H]2O[C@@]3(O)C(=O)C[C@@H](C)O[C@H]3O[C@@H]2[C@H]1O` [SPECTINOMYCIN], for which the “fold change (FC)” value was found to be 16 in assay [17], 2 in assay [18] and 4 in [19]. Besides, the “fractional inhibitory concentration index (FICI)” value in assay [10] was 0.31; in [8], 0.19; in assay [15], 0.63; in [16] it was 0.31. Further, the MIC99 in assay [10] worked out at 5.25 µM; in assay [7], 84.1 µM; in assay [20] it was 10.5 µM; in assay [21], 21 µM; in [22] it was 42 µM; in assay [8], 5.25 µM. In addition, the MIC99 in assay [15] worked out at 84.1 µM; in assay [16], 5.25 µM. In addition, the Ratio is recorded as 0.062 in assay [4], 0.062 in [13], 0.5 in [14] and 0.062 in [11].
In turn, `CN[C@@H]1[C@H](O)[C@H](NC)[C@H]2O[C@]3(O)[C@H](O[C@@H]2[C@H]1O)O[C@H](C)C[C@H]3NC(=O)Cc1ccccn1` registered a minimum inhibitory concentration (MIC) in assay [9] of 0.8 µg/mL (≈ 1.77 µM).
With `NC[C@H]1O[C@H](O[C@H]2[C@H](O)[C@@H](O[C@H]3O[C@H](CO)[C@@H](O)[C@H](N)[C@H]3O)[C@H](N)C[C@@H]2N)[C@H](O)[C@@H](O)[C@@H]1O` [KANAMYCIN], the “fold change (FC)” value in assay [17] and in assay [18] was 2 in each case. The “fractional inhibitory concentration index (FICI)” value is 1 in assay [10], 0.5 in assay [8], 1 in [15] and 0.5 in assay [16]. Also, the MIC99 in assay [10] was determined as 3.57 µM; in assay [7] it was 7.16 µM; in assay [20], 0.89 µM; in [22], 0.89 µM; in assay [8], 0.89 µM; in assay [15], 0.89 µM. In assay [16], the MIC99 was found to be 0.89 µM. The Ratio in [4] stood at 0.249; in [13], 0.249; in assay [14] it was 0.497; in [11], 0.5.
Turning to `C[N+](C)([O-])CCCN1c2ccccc2[S+]([O-])c2ccc(Cl)cc21` (configuration not stated), the MIC99 in assay [2] was 1900 µM; in assay [3], 475 µM; in [7], more than 1900 µM.
Regarding `CNCCCN1c2ccccc2Sc2ccc(Cl)cc21` [NOR1-CHLORPROMAZINE], the MIC99 is 34.2 µM in assay [1]; 34.2 µM in [2]; 34.2 µM in [3]; 34.2 µM in assay [6]; 137 µM in assay [7]. In addition, the Ratio in [5] and in [12] was 0.25 in each case.
Regarding `CN(C)CCCN1c2ccccc2[S+]([O-])c2ccc(Cl)cc21` (configuration not stated) [CHLOROPROMAZINE SULFOXIDE], the MIC99 in assay [2] is 1990 µM; in [3], 1990 µM; in assay [7] it was more than 1990 µM.
Consider `CO[C@H]1/C=C/O[C@@]2(C)Oc3c(C)c(O)c4c(O)c(c(/C=N/N5CCN(C)CC5)c(O)c4c3C2=O)NC(=O)/C(C)=C\C=C\[C@H](C)[C@H](O)[C@@H](C)[C@@H](O)[C@@H](C)[C@H](OC(C)=O)[C@@H]1C` [RIFAMPIN], for which the “fractional inhibitory concentration index (FICI)” value was 0.63 in [10], 0.63 in assay [8], 1 in assay [15] and 0.5 in assay [16]. In addition, the MIC99 was determined as 0.2 µM in assay [10]; 2.53 µM in [7]; 0.32 µM in assay [8]; 0.63 µM in [15]; 0.32 µM in [16]. Further, the Ratio in assay [4] worked out at 0.126; in [13], 0.254; in assay [14] it was 0.5; in assay [11], 0.126.
In turn, `CN[C@@H]1[C@H](O)[C@H](NC)[C@H]2O[C@]3(O)[C@H](O[C@@H]2[C@H]1O)O[C@H](C)C[C@H]3NC(=O)Cc1cscn1` showed an MIC in [9] of 0.8 µg/mL (≈ 1.74 µM).

Source of the values: ChEMBL document CHEMBL3352027, “Pharmacologically active metabolites, combination screening and target identification-driven drug repositioning in antituberculosis drug discovery” (2014).
